Like-named read-outs stand apart in the source and are kept apart here.

What all share (type): cell-based, HCV
Assay [1] relates to genotype 2a JFH-1 replicon (L31 present in NS5A). Briefly: microbe, parasite or virus in culture. The following applies: Hepatitis C virus, read-out: 2a JFH.
Assay [2] relates to genotype 2b MD2b-1 strain NS5A gene (M31 present). The experiment in a line: microbe, parasite or virus in culture. The procedure:
(§1) Evaluation of cell-based anti-HCV activity: Antiviral potency (EC50) was determined using a Renilla luciferase (RLuc)-based HCV replicon reporter assay. […] To perform the assay for genotype 2a (with M31 present in NS5A) or 2b, NS5A chimeric genotype 2a JFH-1 replicons that encodes a RLuc-Neo reporter and either genotype 2a J6 strain NS5A gene or genotype 2b MD2b-1 strain NS5A gene (both with M31 present) respectively, were either transiently transfected (t) into Huh-Lunet cells or were established as stably replicating replicon cells (s) is provided. Either cells were dispensed into 384-well plates for EC50 assays. To perform the assay for genotype 3 and 4, NS5A chimeric genotype 1b Con1 replicons that encodes a Pi-RLuc reporter and either genotype 3a S52 strain NS5A gene or genotype 4a ED43 strain NS5A gene respectively, were transiently transfected (t) into Huh-Lunet cells, which were subsequently dispensed into 384-well plates. Compounds were dissolved in DMSO at a concentration of 10 mM and diluted in DMSO either manually or using an automated pipeting instrument. Serially 3-fold diluted compounds were either manually mixed with cell culture media and added to the seeded cells or directly added to the cells using an automated instrument. […] 72 hours later, cells were lysed and Renilla luciferase activity quantified as recommended by the manufacturer (Promega-Madison, Wis.). Non-linear regression was performed to calculate EC50 values.

The test system of assay [3] is genotype 1a H77 replicon. Briefly: microbe, parasite or virus in culture. The following applies: Hepatitis C virus, read-out: 1a. The procedure: as §1
In assay [4] the test system is genotype 2a JFH-1 replicon (L31 present in NS5A). Briefly: microbe, parasite or virus in culture. As for the experimental part:
as §1

Assay [5] relates to genotype 2a J6 strain NS5A gene (M31 present). The experiment in a line: Replicon assay, NS5A chimeric 2a JFH-1 replicon with 2a J6 NS5A, transient (t) or stable (s), Huh-Lunet cells. As for the experimental part: as §1
For assay [6], the system named is genotype 4a ED43 strain NS5A gene. The experiment in a line: Replicon assay, NS5A chimeric 1b Con1 replicon with 4a NS5A, transiently transfected Huh-Lunet cells. The procedure: as §1, with “[…],” for “were transiently transfected (t) into Huh-Lunet cells,”
Assay [7] relates to Q30R in genotype 1a NS5A. The experiment in a line: Antiviral potency against resistance mutant, 1a Pi-Rluc replicon in Huh-7-derived cured-51 cells. The following applies: genotype 1a Q30R resistance mutant, read-out: 1a Q30R. As for the experimental part: as §1
To determine the antiviral potency (EC50) against resistance mutants, resistance mutations, including M28T, Q30R, Q30H, L31M, and Y93C in genotype 1a NS5A and Y93H in genotype 1b NS5A, were introduced individually into either 1a Pi-Rluc or 1b Pi-Rluc replicons by site directed mutagenesis. Replicon RNA of each resistant mutant was transiently transfected into Huh-7-derived cured-51 cells and antiviral potency was determined on these transfected cells as described above.

For assay [8], the system named is genotype 1b Con1 replicon. Briefly: microbe, parasite or virus in culture. Conditions: read-out: 1b. The procedure: as §1
Assay [9] has as its system genotype 3a S52 strain NS5A gene. The experiment in a line: Replicon assay, NS5A chimeric 1b Con1 replicon with 3a NS5A, transiently transfected Huh-Lunet cells. The following applies: genotype 3a, read-out: 3a. The procedure: as §1
The mark [10] stands for this setting: Hepatitis C virus, read-out: 2b.
Where [11] appears, read: Hepatitis C virus, read-out: 2a J6.

Regarding `COC[C@H]1C[C@@H](c2nc3ccc4cc5c(cc4c3[nH]2)OCc2cc(-c3cnc([C@@H]4CCCN4C(=O)[C@H](NC(=O)OC)c4ccccc4)[nH]3)ccc2-5)N(C(=O)[C@@H](NC(=O)OC)C(C)OC)C1` (stereo partly drawn) [Example OU, Methyl {(1R)-2-[(2S)-2-(5-{2-[(2S,4S)-1-{(2S)-2-[(methoxycarbonyl)amino]-3-methoxybutanoyl}-4-(methoxymethyl)pyrrolidin-2-yl]-1,11-dihydroisochromeno[4′,3′:6,7]naphtho[1,2-d]imidazol-9-yl}-1H-imidazol-2-yl)pyrrolidin-1-yl]-2-oxo-1-phenylethyl}carbamate], the EC50 in assay [1], in assay [2] (setting [10]) and in assay [3] was less than 1 nM in each case.
Turning to `CCC(C)[C@H](NC(=O)OC)C(=O)N1C[C@@H](C)CC1c1ncc(-c2ccc3c(c2)COc2cc4c(ccc5nc([C@@H]6C[C@H](COC)CN6C(=O)[C@@H](NC(=O)OC)C(C)C)[nH]c54)cc2-3)[nH]1` (stereo in doubt) [Example QC, Methyl {(2S)-1-[(2S,4S)-2-(9-{2-[(2S,4S)-1-{(2S,3R)-2-[(methoxycarbonyl)amino]-3-methylpentanoyl}-4-methylpyrrolidin-2-yl]-1H-imidazol-5-yl}-1,11-dihydroisochromeno[4′,3′:6,7]naphtho[1,2-d]imidazol-2-yl)-4-(methoxymethyl)pyrrolidin-1-yl]-3-methyl-1-oxobutan-2-yl}carbamate], the EC50 in assay [1] is less than 1 nM; in assay [4] (Hepatitis C virus, read-out: 2a JFH (nM)), 0.008 nM; in [2] (setting [10]), less than 1 nM; in assay [3] it was less than 1 nM; in assay [5] (setting [11]), less than 1 nM.
Consider `CC[C@@H](C)C(NC(=O)OC)C(=O)N1C[C@@H](COC)C[C@H]1c1nc2ccc3cc4c(cc3c2[nH]1)OCc1cc(-c2cnc([C@@H]3C[C@H](C)CN3C(=O)[C@@H](NC(=O)OC)[C@H](C)CC)[nH]2)ccc1-4` (stereo partly drawn) [Example QE, Methyl {(3R)-1-[(2S,4S)-2-(9-{2-[(2S,4S)-1-{(2S,3R)-2-[(methoxycarbonyl)amino]-3-methylpentanoyl}-4-methylpyrrolidin-2-yl]-1H-imidazol-5-yl}-1,11-dihydroisochromeno[4′,3′:6,7]naphtho[1,2-d]imidazol-2-yl)-4-(methoxymethyl)pyrrolidin-1-yl]-3-methyl-1-oxopentan-2-yl}carbamate], for which the EC50 in [1], in [2] (setting [10]), in [3] and in assay [5] (setting [11]) was less than 1 nM each time.
For “Methyl {(2S)-1-[(2S,5S)-2-(5-{2-[(2S,4S)-1-{(2S)-2-[(methoxycarbonyl)amino]-3-methylbutanoyl}-4-methylpyrrolidin-2-yl]-1,11-dihydroisochromeno[4′,3′:6,7]naphtho[1,2-d]imidazol-9-yl}-1H-imidazol-2-yl)-4-methylpyrrolidin-1-yl]-3-methyl-1-oxobutan-2-yl}carbamate [Example ND]”, the EC50 in assay [6] (genotype 4a, EC50 range class, transiently transfected cells (t), if unavailable stably replicating cells (s), read-out: 4a) was less than 1 nM; in assay [6] (stably replicating cells (s), read-out: 4a (s)), 0.044 nM; in assay [6] (transiently transfected cells (t), read-out: 4a (t)) it was 0.031 nM; in assay [7] (EC50 range class) it was less than 1 nM; in assay [7], 0.057 nM; in [4] (genotype 2a JFH replicon, EC50 range class, read-out: 2a JFH) it was less than 1 nM. Moreover, the EC50 is 0.014 nM in assay [4] (genotype 2a JFH replicon, read-out: 2a JFH); less than 1 nM in assay [2] (genotype 2b, EC50 range class, transiently transfected cells (t), if unavailable stably replicating cells (s), read-out: 2b); 1.32 nM in [2] (stably replicating cells (s), read-out: 2b (s)); 0.27 nM in [2] (transiently transfected cells (t), read-out: 2b (t)); 0.024 nM in [8]; less than 1 nM in assay [5] (genotype 2a J6, EC50 range class, transiently transfected cells (t), if unavailable stably replicating cells (s), read-out: 2a J6). Further, the EC50 is 2.34 nM in [5] (stably replicating cells (s), read-out: 2a J6 (s)); 0.314 nM in [5] (transiently transfected cells (t), read-out: 2a J6 (t)); less than 1 nM in [9] (EC50 range class); 0.035 nM in assay [9].

The values are drawn from patent US9221833B2, “Antiviral compounds” (GILEAD PHARMASSET LLC, priority 2011, dated 2015).
